Structures can show the parent of a compound that is named as a salt. Where two headings read alike, the source gives them in different places.

The subject of data set [1] is post-cell stages of spermatogenesis (male germ cells). Conditions: cited from earlier work; for Lethal/tested mutations: number of lethal mutations among those tested, for chlorambucil includes mutations with evidence for deletion.
The test system of a further data set is zebrafish. Conditions: ENU mutagenesis; cited from earlier work.
In the next data set the test system is male mice. The data set is described as follows: Sterility of male mice after ENU treatment. The format is in vivo. On the procedure:
Mutations in the DNA of the premeiotic spermatogonia of male mice can be induced with the DNA alkylating agent ethylnitrosourea (ENU). Typically, 3 separate doses of 100 mg/kg body weight ENU are injected interperitoneally, with each injection separated by a one week interval. The animals undergo a period of sterility (usually 8-14 weeks), after which they can be mated to nonmutagenized females to produce offspring (the F1 generation) which carry heterozygous mutations in their genome (FIG. 1).
Each animal carries the same set of heterozygous mutations throughout both somatic and germ tissue. To generate large numbers of offspring for a paired sample set, 300 males are treated with ENU. Approximately 100 of these mice will be permanently sterile; the remaining 200 are permanently mated with 2 females each. […] In this way a set of paired samples comprised of over 30,000 animals can be produced within a year, including the time required to establish the ENU treated breeding males. The process can be scaled up by ENU treatment and breeding of additional male mice.

The test system of a further data set is mice. Conditions: cited from earlier work; for mutation frequency compared with ENU: other chemical mutagens versus ENU (approximately 1 per 1000 mice).
[2] abbreviates: experimental minus historical control 43/801,406, for period of maximum response, at the listed exposure.
[3] abbreviates: rate relative to exposure in mol per kg body weight.

Consider `C=CC(N)=O` [AA, acrylamide monomer], for which, in data set [1] (mouse, in vivo), the “Induced mutation rate per locus” value was 18.2 × 10^−5 and the “Induced mutation rate per locus per mol” value is listed as 0.1 per mol.
On to `O=C(O)CCCc1ccc(N(CCCl)CCCl)cc1` [Chl, chlorambucil], for which, in data set [1] (setting [2]), the “Induced mutation rate per locus” value was 127.3 × 10^−5. In addition, the Lethal/tested mutations in data set [1] is reported as 1/4. The “Induced mutation rate per locus per mol” value in data set [1] (setting [3]) is reported as 38.7 per mol.
Regarding `O=P1(N(CCCl)CCCl)NCCCO1` (stereo not drawn) [Cp, cyclophosphamide], the “Induced mutation rate per locus” value in data set [1] (setting [2]) was 24.3 × 10^−5. In addition, the Lethal/tested mutations in data set [1] is 3/5. Moreover, in data set [1] (setting [3]), the “Induced mutation rate per locus per mol” value is 0.5 per mol.
As to `CCN(N=O)C(N)=O` [ENU, N-ethyl-N-nitrosourea], the locus-specific mutation frequency with zebrafish is 1/1000. Also, the period of sterility in the data set on male mice (male mice, 3 doses of 100 mg/kg ENU interperitoneally at one week intervals) is given as 8-14 weeks. The mice permanently sterile result in the data set on male mice (of 300 males treated with ENU) was “Approximately 100 mice”. Also, the “frequency of mutations, determined for numerous genes” value with mice (for any given gene screened, phenotype-based) is on record as 0.5-1.5 mutant mice per 1000 mice. Also, the “frequency of a mutation in any given gene” value in the data set with mice (offspring of ENU mutagenized male mice, based on phenotypic assays) is given as “approximately 1 per 1000 mice”. For the same molecule, the “Induced mutation rate per locus” value in data set [1] (setting [2]) is 10.6 × 10^−5. The Lethal/tested mutations in data set [1] is given as 0/5. Besides, the “Induced mutation rate per locus per mol” value in data set [1] (setting [3]) is recorded as 0.2 per mol.
Consider `CCOS(=O)(=O)OCC` [Et2SO4, diethyl sulfate], for which, in data set [1] (mouse, in vivo), the “Induced mutation rate per locus” value was 11.2 × 10^−5 and the “Induced mutation rate per locus per mol” value is listed as 0.1 per mol. In data set [1], the Lethal/tested mutations is 4/4.
Regarding `CCOS(C)(=O)=O` [EtMs, ethyl methanesulforate], the “Induced mutation rate per locus” value in data set [1] (setting [2]) was 20.9 × 10^−5. In addition, the Lethal/tested mutations in data set [1] was 0/1. The “Induced mutation rate per locus per mol” value in data set [1] (setting [3]) is reported as 0.1 per mol.
In the case of `CN(N=O)C(N)=O` [MNU, N-methyl N-nitrosourea], the “mutation frequency compared with ENU” value in the data set with mice is “same type of mutation frequency”. In addition, in data set [1] (setting [2]), the “Induced mutation rate per locus” value was 90.2 × 10^−5. The Lethal/tested mutations in data set [1] is given as 0/17. Moreover, in data set [1] (setting [3]), the “Induced mutation rate per locus per mol” value is 1.2 per mol.
Consider `COS(C)(=O)=O` [MeMs, methyl methanesulforate], for which the “mutation frequency compared with ENU” value in the data set on mice is given as “same type of mutation frequency”. Moreover, the “Induced mutation rate per locus” value in data set [1] (setting [2]) was 24.0 × 10^−5. Besides, in data set [1], the Lethal/tested mutations is recorded as 10/14. In data set [1] (setting [3]), the “Induced mutation rate per locus per mol” value is listed as 0.7 per mol.
On to `CNNCc1ccc(C(=O)NC(C)C)cc1.Cl` [Pre, phocarbazine hydrochloride], for which the “mutation frequency compared with ENU” value with mice was “same type of mutation frequency”. Also, the “Induced mutation rate per locus” value in data set [1] (setting [2]) was 21.6 × 10^−5. Also, the “Induced mutation rate per locus per mol” value in data set [1] (setting [3]) is 0.1 per mol.

The values above are taken from patent US20010056582A1, “PAIRED MUTATIONS” (priority 1997, published 2001).
